Measured values as given in patent publication US7001616B2, “Microspheres for use in the treatment of cancer” (University of Florida, priority 1998, dated 2006).
Counter-ions that a name gives are not always drawn. Each block holds one molecule with its values, some of them ahead of it.

Legend:
Format in all cases: physicochemical
[1] = Total percent loading of microspheres with FUDR; settings: 5 mg/ml FUDR in methanol; 50/49/1 microspheres, 50–80 μm
Protocol: (§1) Initial FUDR Test. 150 mg of 50–80 μm diameter EMA/DEA/DVB (in a ratio of 50/49/1) microspheres were washed twice with methanol, dried and then immersed in 1 ml of methanol containing 5 mg FUDR. After 24 hours the methanol was allowed to evaporate and the loaded spheres were dispersed in 50 ml of distilled water and centrifuged repeatedly for 10 cycles. The spheres were collected and allowed to dry in a cone filter under the hood for 24 hours. 10 mg of the loaded spheres were placed in each of two separate vials containing either 15 ml of pH 6.8 citric acid buffer (0.05 M I=0.3) or pH 7.4 potassium phosphate monobasic-NaOH buffer (0.05M, Fisher Scientific). Each vial was agitated by hand daily and a total of 5 samples (5 ml each) were taken over a 14 day period and measured spectrophotometrically at 268 nm to determine the FUDR concentration in solution. Each sample was replaced using fresh buffer. The total percent loading was determined by the same process after placing a 10 mg sample of spheres into 15 ml of pH 4.0 citric acid buffer for 24 hours.

[2] = In vitro FUDR release from microspheres in buffer; settings: 50/49/1 microspheres
Protocol: as §1
Follow-up FUDR Release. […] Sample volumes of 5 ml and 3 ml were taken from the pH 6.6 and 6.9 buffers, respectively.

[3] = In vitro doxorubicin release from microspheres in buffer; settings: pH 6.75; 50/49/1 microspheres
Protocol: Doxorubicin Release. The doxorubicin release experiments were carried out in the same manner as the FUDR and dye release. 150 mg of 50–80 μm diameter microspheres were cleaned and immersed in 1 ml of methanol containing 5 mg of the drug for 24 hours and the methanol was allowed to evaporate slowly under the hood. The loaded microspheres were cleaned and dried and 10 mg samples were placed into 20 ml glass vials (Fisher Scientific). 15 ml of citric acid buffer was placed into each vial such that there were three samples each at pH values of 6.6, 6.75, and 6.9. Drug release at pH 7.4 was performed using 15 ml potassium phosphate buffer added to each of the remaining three vials. Drug release was measured spectrophotometrically at 479 nm.

[4] = Total percent loading of microspheres with test dye; settings: 9-aminoacridine, 100 mg per ml of methanol; spheres from suspension polymerization
Protocol: (§2) All four compositions produced in Example 1 were tested for release properties using 9-aminoacridine (Aldrich) (free from HCl) as a test dye. A 100–150 mg sample of each composition (from the 50–80 μm size group) was first washed twice with methanol, allowed to dry, and then immersed in a saturated solution of 9-aminoacridine in methanol (10 wt %) for 24 hours. The methanol was allowed to evaporate (usually for 24 hours) and the microspheres were washed by a repeated process of suspension and centrifuging (Adams Dynac centrifuge) in fresh neutral pH water (at least 10 cycles). The loaded spheres were collected in a paper filter cone and dried in an oven at 60° C. under vacuum.
For each composition, 5 mg of dye-loaded spheres were placed in glass vials (Fisher 20 ml scintillation vials) containing 15 ml of citric acid buffer (0.05 M, I=0.3) at pH 6.0, 6.5, and 6.8. The buffer solutions consisted of citric acid (anhydrous, Fisher Scientific), NaOH (Fisher Scientific), deionized water, and NaCl (Aldrich). A total of three samples were used from each composition at each pH value to account for error involved with the weighing of the microspheres. At least five samples (5 ml each) were taken from each vial over a 14 day period and the concentration of dye released was determined spectrophotometrically at 400 nm using a Perkin-Elmer Lambda 3B UV/VIS spectrophotometer. […]

[5] = Release of test dye from microspheres in buffer over 14 days
Protocol: as §2
[…] […] A total of three samples were used from each composition at each pH value to account for error involved with the weighing of the microspheres. At least five samples (5 ml each) were taken from each vial over a 14 day period and the concentration of dye released was determined spectrophotometrically at 400 nm using a Perkin-Elmer Lambda 3B UV/VIS spectrophotometer. Each sample was replaced with fresh buffer solution. A 5 mg sample of each composition was also placed into 15 ml of pH 2.5 citric acid buffer (0.05 M) for 24 hours to determine the total percent loading (mg dye released/mg loaded spheres) for the microspheres.

- FUDR loading level [1]: 1.4 weight percentage
- FUDR release over 14 day period ([2]; pH 6.8): 80%
- FUDR 14 day release ([2]; pH 6.9): 55%
- FUDR release ([2]; pH 7.4): over 10%
SMILES: O=c1[nH]c(=O)n([C@H]2C[C@H](O)[C@@H](CO)O2)cc1F [FUDR, fluorodeoxyuridine]

- doxorubicin release over two week period [3]: 75%
SMILES: COc1cccc2c1C(=O)c1c(O)c3c(c(O)c1C2=O)C[C@@](O)(C(=O)CO)C[C@@H]3O[C@H]1C[C@H](N)[C@H](O)[C@H](C)O1 [doxorubicin, hydroxydaunomycin hydrochloride]

- dye loading as restated in text [4]: about 15%
- test dye release after 14 days ([5]; pH 6.8 citric acid buffer): 76%
- test dye release after 14 days ([5]; pH 6.9 citric acid buffer): 63%
- test dye release after two weeks ([5]; pH 7.4 potassium phosphate monobasic-NaOH buffer): over 10%
SMILES: Nc1c2ccccc2nc2ccccc12 [test dye, 9-aminoacridine]
